Key:
[1] = biological target: T1, 5-HT2 receptor (Rattus norvegicus, UniProt P14842); experiment: Affinity for 5-HT2 receptor (binding with 3H-ketanserine); conditions: rat cerebral cortex crude synapse membrane, 37° C. 20 min
T1 construct: A crude synapse membrane was prepared from a freeze-dried rat cerebral cortex; from tissue; host or cells: rat cerebral cortex (crude synaptic membrane)
Method: Affinity for 5-HT2 Receptor (Binding with ^3H-ketanserine)
Preparation of a crude synapse membrane and a binding test were performed according to the method of Leysen J. E. et al. [Molecular Pharmacology, Vol. 21, p. 301 (1982)]. A crude synapse membrane was prepared from a freeze-dried rat cerebral cortex, and the membrane specimen and ^3H-ketanserine were incubated in the presence of a test compound at 37° C. for 20 min. After the completion of the reaction, the reaction mixture was immediately filtered by suction on a Whatmann GF/B filter (trademark), and the radioactivity on the filter was measured on a liquid scintillation counter. The amount of non-specific binding was measured in the presence of 10 μM mianserin. The 50% inhibition concentration (IC50) of the test compound was calculated by the nonlinear regression. In the same manner as above, a comparative test was performed using sarpogrelate as a control compound.

[2] = system: platelet rich plasma (PRP); experiment: Platelet aggregation suppressive action (collagen + 5-HT, platelet rich plasma); assay type: cell-based, Japanese white rabbit; conditions: Oryctolagus cuniculus, rabbit PRP, collagen + 3 μM 5-HT
Method: Platelet Aggregation Suppressive Action
Preparation of platelet rich plasma and a platelet aggregation test were performed according to the method of Born, G. V. R. et al. [Journal of Physiology, Vol. 168, p. 178 (1963)] as in the following. Blood was drawn from the carotid of male Japanese white rabbit with local anesthesia with xylocaine, using a syringe previously added with 3.8% sodium citrate in a 1/10 amount of the blood. This blood was centrifuged at 1000 round/min for 10 min at room temperature to give a platelet rich plasma (PRP) supernatant. This supernatant was further centrifuged at 3000 round/min for 10 min to give a platelet poor plasma (PPP) supernatant. Taking the measurement values of PRP and PPP as 0% aggregation and 100% aggregation, respectively, the platelet aggregation rate (%) was calculated. A test compound (3 μl) was added to 300 μl of PRP and the mixture was incubated at 37° C. for 5 min. Thereto were added, as aggregation inducing substances, collagen at a concentration prohibitive on aggregation by its single administration, and the final concentration of 3 μM of 5-HT, and the aggregation reaction was recorded for 7 min. The effect of the test compound was determined as percent suppression relative to the control group, using the maximum aggregation as an index. The 50% inhibition concentration (IC50) of the test compound was calculated by the nonlinear regression. In the same manner as above, a comparative experiment was conducted for the use of sarpogrelate and cilostazol, respectively as a control compound.

[3] = system: rat intermittent claudication model; experiment: Effect on rat intermittent claudication model (femoral artery ligation, treadmill walking distance); assay type: in vivo; conditions: for walking distance 8 days after administration (Δm): change vs value before ligation, mean±SE
Excerpt: Effect on Rat Intermittent Claudication Model
Rat was anesthetized and the right thigh was opened to expose femoral artery, which was ligated with a silk thread at a position nearest possible to the heart (upstream). In addition, a position about 1 cm from the ligation site to the periphery was ligated with a silk thread, making two ligature sites. Starting from the next day of preparation of a model to day 8 therefrom, a drug was orally administered twice a day for 8 days. However, the drug was orally administered only in the evening of the first day of administration and only in the morning of the final administration day. The walking distance was measured one day before model preparation (initial value), day 1, day 5 and day 8 with a treadmill apparatus. Using a gait test table without an angle of inclination, the conveyor advance speed was first set to 15 m/min, and the speed was increased every 5 min by 5 m/min until the animal failed walking three times, based on which the walking distance of the rat was measured. In the same manner as above, a comparative experiment was performed using sarpogrelate and cilostazol, respectively as a control compound.
In the Table, the values are mean±standard error (n=8 but n=6 only for sarpogrelate group).

[4] = system: lauric acid-induced peripheral arterial obstruction model; experiment: Lauric acid-induced peripheral arterial obstruction model (preventive effect); assay type: in vivo, Wistar rats; conditions: for Lesion score 1 day later / Lesion score 3 days later / Lesion score 5 days later / Lesion score 7 days later: first dose 1 h before lauric acid, score 0 normal to 6
Method: Effect on Lauric Acid-induced Peripheral Arterial Obstruction Model (Preventive Effect) Under anesthesia, lauric acid (0.75 mg/0.15 mL) was injected into the right femoral artery of Wistar rats (6-8 weeks of age). A drug was administered 1 hour before the lauric acid injection. The drug was orally administered twice a day for 8 days. In the same manner as above, a comparative experiment was performed using cilostazol as a control compound. In the Table, the values are mean±standard error (n=12).

[5] = system: lauric acid-induced peripheral arterial obstruction model; experiment: Rat lauric acid-induced peripheral arterial obstruction model (therapeutic effect); assay type: in vivo, Wistar rats; conditions: for Lesion score 1 day later / Lesion score 3 days later / Lesion score 5 days later / Lesion score 7 days later: score 0 normal to 6
Method: Effect on Rat Lauric Acid-induced Peripheral Arterial Obstruction Model (Therapeutic Effect) Under anesthesia, lauric acid (0.75 mg/0.15 mL) was injected into the right femoral artery of Wistar rats (6-8 weeks of age). A drug was administered one day after the lauric acid injection. The drug was orally administered twice a day for 7 days. In the same manner as above, a comparative experiment was performed using sarpogrelate and cilostazol as a control compound. In the Table, the values are mean±standard error (n=11).

[6] = system: erythrocytes; experiment: Improvement effect of erythrocyte deformation (Nuclepore membrane filter method); assay type: in vivo, SHRSP (stroke prone spontaneously hypertensive rat); conditions: SHRSP; for Volume of erythrocytes passed: 5 μm filter
Method: Improvement Effect of Erythrocyte Deformation
Blood was drawn under anesthesia from SHRSP (stroke prone spontaneously hypertensive rat) loaded with 1% saline for 3 weeks, and the time necessary for 0.5 mL of blood to pass through a filter (pore size 5 μm, Nuclepore) was measured by the Nuclepore membrane filter method of Reid et al., based on which the volume (mL/min) of the erythrocytes passed was calculated. The volume of the erythrocytes passed was taken as an index of erythrocyte deformation. A drug was orally administered 1 hour before drawing the blood. In the same manner as above, a comparative experiment was performed using sarpogrelate as a control compound.
(§1) In the Table, the values are mean±standard error (n=6).

[7] = system: collateral circulation model; experiment: Promotion of collateral circulation (femoral artery ligation, ADP-added platelet suspension, leg blood flow); assay type: in vivo, rat; conditions: 10 mg/kg oral
Method: Promotion of Collateral Circulation
A collateral circulation model was prepared by rat femoral artery ligation, and a test drug was orally administered 7 days later. At 1 hour from the test drug administration, ADP-added platelet suspension (200 μM) was administered under anesthesia into the femoral artery (1 mL/kg), and changes in the leg blood flow were measured. In the same manner as above, a comparative experiment was performed using cilostazol as a control compound.
as §1

[8] = Effect on heart rate and blood pressure; assay type: in vivo, Wistar rat; conditions: for Change of blood pressure / Change of heart rate: 1 hour, no anesthesia or restriction
Method: Effect on Heart Rate and Blood Pressure
A catheter was placed in the femoral artery of Wistar rat, and the blood pressure and heart rate were invasively monitored under no anesthesia or restriction. At 1 hour from the oral administration of the test drug, blood pressure and heart rate were taken. In the same manner as above, a comparative experiment was performed using cilostazol as a control compound.
In the Table, the values are mean±standard error (n=4).

[9] = 10 mg/kg oral twice a day from one day after lauric acid
[10] = 30 mg/kg oral twice a day from one day after lauric acid
[11] = 1 hour, after ADP-added platelet suspension

T1 sequence (P14842 whole entry): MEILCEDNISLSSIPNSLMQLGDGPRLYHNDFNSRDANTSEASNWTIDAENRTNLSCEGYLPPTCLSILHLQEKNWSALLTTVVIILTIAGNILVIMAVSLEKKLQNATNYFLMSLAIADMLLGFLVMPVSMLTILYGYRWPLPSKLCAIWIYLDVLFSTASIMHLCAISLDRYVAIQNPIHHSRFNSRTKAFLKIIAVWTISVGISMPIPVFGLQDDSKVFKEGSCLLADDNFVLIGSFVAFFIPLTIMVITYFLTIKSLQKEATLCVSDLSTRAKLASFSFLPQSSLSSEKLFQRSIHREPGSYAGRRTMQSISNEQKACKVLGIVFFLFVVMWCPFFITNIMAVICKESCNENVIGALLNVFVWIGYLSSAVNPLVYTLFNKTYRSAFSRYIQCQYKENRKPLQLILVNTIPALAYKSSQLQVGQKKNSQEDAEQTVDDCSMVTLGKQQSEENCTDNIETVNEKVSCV

In the case of `O=C(N[C@H]1CCN(CCc2ccc(F)cc2)C1)C12CC3CC(CC(C3)C1)C2` [Example 2, (S)-N-(1-(2-(4-fluorophenyl)ethyl)pyrrolidin-3-yl)-1-adamantanecarboxamide], the IC50 [1] is reported as 0.18 nM, the IC50 [2] is reported as 1.9 nM and the “walking distance 8 days after administration (Δm)” value (from here on “walking distance 8 days … (Δm)”) ([3]; 3 mg/kg oral twice a day) is reported as −94.3 ± 36.1 m. For the same compound, the “walking distance at day 8 of ligation (in words)” value ([3]; 3 mg/kg, 10 mg/kg and 30 mg/kg, b.i.d.) was “significantly increased”, the “walking distance 8 days … (Δm)” value ([3]; 10 mg/kg oral twice a day) was −89.9 ± 22.2 m and the “walking distance 8 days … (Δm)” value ([3]; 30 mg/kg oral twice a day) was −88.6 ± 25.0 m. The “peripheral circulatory disturbance (in words)” value ([4]; 10 mg/kg and 30 mg/kg, prior to the lauric acid injection) was “significantly reduced the peripheral circulatory disturbance”, the “Lesion score 1 day later” value ([4]; 10 mg/kg oral twice a day) was 1.8 ± 0.1 and the “Lesion score 3 days later” value ([4]; 10 mg/kg oral twice a day) was 2.1 ± 0.2. The “Lesion score 5 days later” value ([4]; 10 mg/kg oral twice a day) was 1.8 ± 0.3, the “Lesion score 7 days later” value ([4]; 10 mg/kg oral twice a day) was 1.9 ± 0.5 and the “Lesion score 1 day later” value ([4]; 30 mg/kg oral twice a day) was 1.8 ± 0.2. The “Lesion score 3 days later” value ([4]; 30 mg/kg oral twice a day) was 2.0 ± 0.3, the “Lesion score 5 days later” value ([4]; 30 mg/kg oral twice a day) was 1.5 ± 0.4 and the “Lesion score 7 days later” value ([4]; 30 mg/kg oral twice a day) was 1.2 ± 0.5. For the same compound, the “Lesion score 1 day later” value [5, 9] was 2.0 ± 0.0, the “Lesion score 3 days later” value [5, 9] was 2.2 ± 0.1 and the “Lesion score 5 days later” value [5, 9] was 2.2 ± 0.4. For the same compound, the “Lesion score 7 days later” value [5, 9] was 2.2 ± 0.4, the “Lesion score 1 day later” value [5, 10] was 1.8 ± 0.1 and the “Lesion score 3 days later” value [5, 10] was 1.7 ± 0.2. The “Lesion score 5 days later” value [5, 10] was 1.3 ± 0.3, the “Lesion score 7 days later” value [5, 10] was 0.9 ± 0.5 and the “peripheral circulatory disturbance (in words)” value ([5]; 30 mg/kg, from one day after the lauric acid injection) was “significantly reduced the peripheral circulatory disturbance”. For the same compound, the “volume of the erythrocyte passed, % of the vehicle group” value ([6]; 10 mg/kg) was 133%, the “Volume of erythrocytes passed” value ([6]; 10 mg/kg oral 1 hour before drawing blood) was 1.05 ± 0.13 mL/min and the “volume of the erythrocyte passed, % of the vehicle group” value ([6]; 30 mg/kg) was 186%. For the same compound, the “Volume of erythrocytes passed” value ([6]; 30 mg/kg oral 1 hour before drawing blood) was 1.47 ± 0.19 mL/min, the “decrease in leg blood flow caused by ADP-added platelet suspension (in words)” value [7] was “suppressed the decrease in the blood flow in the legs on both sides” and the “Change in blood flow, control side” value [7, 11] was −10.1 ± 1.4 %. The “Change in blood flow, femoral artery ligation side” value [7, 11] was −11.8 ± 1.2 %, the “influence on heart rate or blood pressure (in words)” value ([8]; 30 mg/kg and 100 mg/kg) was “did not influence the heart rate or blood pressure” and the “Change of blood pressure” value ([8]; 30 mg/kg oral) was 0.0 ± 1.5 mmHg. For the same compound, the “Change of heart rate” value ([8]; 30 mg/kg oral) was −1.3 ± 4.7 beats/min, the “Change of blood pressure” value ([8]; 100 mg/kg oral) was −2.8 ± 0.8 mmHg and the “Change of heart rate” value ([8]; 100 mg/kg oral) was −4.5 ± 5.2 beats/min.

Reference: US6468998B1, “Pyrrolidine compounds and medicinal utilization thereof” (Mitsubishi Pharma Corporation, priority 1998, dated 2002)
